Source: patent US7625878B2, “Sulfoalkyl ether-alkyl ether cyclodextrin derivatives” (The University of Kansas, priority 2003, dated 2009)

What was measured:
Type in all cases: physicochemical
[1] = binding constant K1:1 of inclusion complex with Nifedipine; settings: substrate Nifedipine, value (spread)
Experimental: (§1) The following tables detail some of the SAE-AE-CD's according to the invention. These products were made according to the examples below. The table indicates the inclusion complexes formed with the indicated drugs and cyclodextrins as well as their corresponding linear binding constants (K1:1) determined at 25° C.
(§2) Excess amount of drug was added to a CD-containing aqueous solution (concentration ranging from 0 to 0.10M). […] The suspension was centrifuged for 5 min. at 3000 rpm (Dynac™ centrifuge, Clay Adams, Parsippany, N.J.). A 20 μL sample was obtained from the supernatant and diluted to 1-5-ml with glass double distilled water.
(§3) The mobile phase(s) was chosen in accordance with the properties of the analyzed drug and its behavior in interacting with the chromatographic support. Suitable exemplary conditions for specific drugs are detailed in the table below.
(§4) The following general procedure was used to determine the extent of inclusion complex formation for an active agent/cyclodextrin derivative combination. The change in absorbance due to inclusion complex formation for a drug was monitored. The change in absorbance value as a function of total ligand concentration at a fixed concentration of substrate was measured. The wavelength for analysis was chosen appropriately depending on the analyzed drug. […]

[2] = binding constant K1:1 of inclusion complex with Triamcinolone; settings: substrate Triamcinolone, value (spread)
Experimental: as §1
(§5) The following general procedure was used to determine the extent of inclusion complex formation for an active agent/cyclodextrin derivative combination. The change in absorbance due to inclusion complex formation for a drug was monitored. The change in absorbance value as a function of total ligand concentration at a fixed concentration of substrate was measured. The wavelength for analysis was chosen appropriately depending on the analyzed drug. The analysis was performed using a Perkin Elmer double beam UV/Vis Lamda 6 instrument equipped with a data manager software and water jacketed multicell attachment. A circulating water bath was used to provide constant temperature during experiments. The data were linearized using the method described by Foster et al.: R. Foster, D. L. Hammich, A. A Wardley (Interaction of Polynitro compounds with Aromatic Hydroquinones and Bases. Part III. A New Method for Determining the Association Constants for Certain Interactions between Nitro Compounds and Bases in Solution. J. Chem. Soc. (1953) 3817-20). […]

[3] = binding constant K1:1 of inclusion complex with Clotrimazole; settings: substrate Clotrimazole, value (spread)
Experimental: as §1, §5

[4] = binding constant K1:1 of inclusion complex with α-Me-Prednisolone; settings: substrate α-Me-Prednisolone, value (spread)
Experimental: as §1, §2, §3, §4

[5] = binding constant K1:1 of inclusion complex with Nitrendipine; settings: substrate Nitrendipine, value (spread)
Experimental: as §1, §5

[6] = binding constant K1:1 of inclusion complex with Camptothecin; settings: substrate Camptothecin, value (spread)
Experimental: as §1, §2, §3

[7] = binding constant K1:1 of inclusion complex with Prednisolone; settings: substrate Prednisolone, value (spread)
Experimental: as §1, §5

[8] = binding constant K1:1 of inclusion complex with Nimodipine; settings: substrate Nimodipine, value (spread)
Experimental: as §1, §5

K1:1 25° C. [1] | K1:1 25° C. [2] | K1:1 25° C. [3] | K1:1 25° C. [4] | K1:1 25° C. [5] | K1:1 25° C. [6] [M⁻¹] | K1:1 25° C. [7] | K1:1 25° C. [8] | SMILES
121.9(35) |  |  |  |  |  |  |  | OC[C@H]1O[C@@H]2O[C@H]3[C@H](O)[C@@H](O)[C@@H](O[C@H]4[C@H](O)[C@@H](O)[C@@H](O[C@H]5[C@H](O)[C@@H](O)[C@@H](O[C@H]6[C@H](O)[C@@H](O)[C@@H](O[C@H]7[C@H](O)[C@@H](O)[C@@H](O[C@H]8[C@H](O)[C@@H](O)[C@@H](O[C@H]1[C@H](O)[C@H]2O)O[C@@H]8CO)O[C@@H]7CO)O[C@@H]6CO)O[C@@H]5CO)O[C@@H]4CO)O[C@@H]3CO [β-CD, β-cyclodextrin]
1416.1(162) | 9769 (560) | 1015(30) | 3038(269) | 2508(59) | 73 | 3300.42(21) | 1780(190) | OC[C@H]1O[C@@H]2O[C@H]3[C@H](O)[C@@H](O)[C@@H](O[C@H]4[C@H](O)[C@@H](O)[C@@H](O[C@H]5[C@H](O)[C@@H](O)[C@@H](O[C@H]6[C@H](O)[C@@H](O)[C@@H](O[C@H]7[C@H](O)[C@@H](O)[C@@H](O[C@H]8[C@H](O)[C@@H](O)[C@@H](O[C@H]9[C@H](O)[C@@H](O)[C@@H](O[C@H]1[C@H](O)[C@H]2O)O[C@@H]9CO)O[C@@H]8CO)O[C@@H]7CO)O[C@@H]6CO)O[C@@H]5CO)O[C@@H]4CO)O[C@@H]3CO [γ-CD, γ-cyclodextrin]
